Test results taken from patent publication US9364488B2, “Myelin regeneration with androgens” (priority 2011, dated 2016).
Entries after “also recorded” stand apart in the source; their conditions may differ.

Assays:
[1] = mouse, in vivo, sc
[2] = tested on: oligodendrocyte progenitors; test: Proliferation and maturation of oligodendrocyte progenitors
[3] = tested on: organotypic cultures of cerebellar slices
[4] = tested on: activated microglial cells in corpus callosum; test: Microglial responses and astrogliosis after cuprizone intoxication; details: 9 weeks of treatment after 12 weeks of cuprizone intoxication, castrated males
[5] = tested on: corpus callosum axons of cuprizone-intoxicated mice; test: Remyelination of corpus callosum after demyelination induced by cuprizone intoxication; type: in vivo; details: for remyelination of corpus callosum (myelin basic protein staining, oligodendrocytes): 6 weeks of treatment with subcutaneous silastic implants after 12 weeks of cuprizone intoxication; for promyelinating effect in vivo after demyelination induced by cuprizone intoxication (summary statement): male and female animals; for remyelinating effect in testicular feminized mice: mice devoid of functional androgen receptors due to a gene mutation
Source text: In Figures b, d and f, are shown representative images of immunostaining of mouse corpus callosum with anti-MBP antibody.

[6] = MENT level in plasma of castrated male mice with subcutaneous silastic implants (radioimmunoassay); type: in vivo; details: mean of 8 samples, SD 0.87
Source text: In additional experiments, the level of MENT which was induced in the plasma of castrated male mice based on subcutaneous silastic implants, as determined by radioimmunoassay, and which included a myelin response, was as follows: […]

[7] = target: estrogen receptor beta (ERβ) (Homo sapiens, UniProt Q92731); details: reference 16; cited from earlier work
Sequence of estrogen receptor beta (ERβ) (Q92731 whole entry, species assumed): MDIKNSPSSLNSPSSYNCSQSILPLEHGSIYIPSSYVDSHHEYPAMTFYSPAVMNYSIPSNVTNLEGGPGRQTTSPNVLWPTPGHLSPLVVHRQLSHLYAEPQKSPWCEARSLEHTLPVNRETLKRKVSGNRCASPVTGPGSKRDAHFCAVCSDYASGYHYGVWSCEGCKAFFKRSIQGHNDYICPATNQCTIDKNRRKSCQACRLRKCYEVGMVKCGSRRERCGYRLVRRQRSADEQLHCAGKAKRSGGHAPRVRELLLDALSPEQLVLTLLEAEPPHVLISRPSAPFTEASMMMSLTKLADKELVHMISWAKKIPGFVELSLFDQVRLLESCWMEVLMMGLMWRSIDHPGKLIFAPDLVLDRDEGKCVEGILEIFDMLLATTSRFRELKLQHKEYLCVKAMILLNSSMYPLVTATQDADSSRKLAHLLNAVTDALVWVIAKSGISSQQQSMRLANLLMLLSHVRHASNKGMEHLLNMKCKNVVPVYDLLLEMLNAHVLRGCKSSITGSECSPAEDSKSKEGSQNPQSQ

## C[C@]12CC[C@@H]3c4ccc(O)cc4CC[C@H]3[C@@H]1CC[C@@H]2O [Estradiol, estradiol]
[1]; male
  Brain Level: 0.36 ± 0.04 ng/g
  PLASMA LEVEL: 0.39 ± 0.07 ng/mL
[1]
  levels produced in plasma and brain tissue by the implants: high physiological levels

## C[C@]12CC[C@H]3[C@@H](CCC4=CC(=O)CC[C@@]43C)[C@@H]1CC[C@@H]2O [Testosterone, testosterone]
[2]
  proliferation and maturation of oligodendrocyte progenitors: promotes the proliferation and maturation
[3]
  promyelinating effect in vitro: very strong promyelinating effect
[4]
  number of activated microglial cells: return to normal levels; also recorded: significantly decreased
[5]
  remyelination of corpus callosum (myelin basic protein staining, oligodendrocytes): Strong remyelination
  promyelinating effect in vivo after demyelination induced by cuprizone intoxication (summary statement): very strong promyelinating effect
  remyelinating effect in testicular feminized mice: not observed
[5]; aromatase knockout mice, cuprizone model
  remyelinating effect in aromatase knockout mice: loses its efficiency; also recorded: strongly reduced; also recorded: diminished
[5]; listed as testosterone
  remyelinating effect in testicular feminized mice: eliminated
[5]; silastic implants for 3 to 6 weeks after termination of 12 week cuprizone diet
  replenishment of corpus callosum fibers by oligodendrocytes: replenished by oligodendrocytes forming new myelin sheaths

## C[C@]12CCC(=O)C[C@@H]1CC[C@@H]1[C@@H]2CC[C@]2(C)[C@@H](O)CC[C@@H]12 [5α-dihydrotestosterone]
[5]
  remyelination of corpus callosum (myelin basic protein staining, oligodendrocytes): promotion of remyelination
  promyelinating effect in vivo after demyelination induced by cuprizone intoxication (summary statement): mimicked by 5α-dihydrotestosterone

## C[C@@H]1CC2=CC(=O)CC[C@@H]2[C@H]2CC[C@]3(C)[C@@H](O)CC[C@H]3[C@@H]21 [MENT]
[6]
  mean MENT plasma level: 2.12 ng/mL
Mouse spinal cord
  remyelination after lysolecithin-induced demyelination: can be mimicked by MENT
[5]
  remyelination of corpus callosum (myelin basic protein staining, oligodendrocytes): promotion of remyelination
  promyelinating effect in vivo after demyelination induced by cuprizone intoxication (summary statement): also observed

## C[C@]12CC[C@H](O)C[C@@H]1CC[C@@H]1[C@@H]2CC[C@]2(C)[C@@H](O)CC[C@@H]12 [3βAdiol, 5α-androstane-3β,17β-diol]
[7]
  binding to estrogen receptor beta (ERβ): strongly binds
